Measured values reported in ChEMBL document CHEMBL3045821, “Microwave-assisted synthesis of 3-indolyl substituted 4H-chromenes catalyzed by DMAP and their antimicrobial activity” (2012).
≈ marks a conversion by molar mass, not a printed value.

What was measured:
Assay type in all cases: functional
Candida albicans = test: Antifungal activity against Candida albicans MTCC 227 after 24 to 48 hr by broth microdilution method
Aspergillus fumigatus = test: Antifungal activity against Aspergillus fumigatus MTCC 3008 after 24 to 48 hr by broth microdilution method
Bacillus subtilis = test: Antibacterial activity against Bacillus subtilis MTCC 441 after 24 to 48 hr by broth microdilution method
Escherichia coli = test: Antibacterial activity against Escherichia coli MTCC 443 after 24 to 48 hr by broth microdilution method
Clostridium tetani = test: Antibacterial activity against Clostridium tetani MTCC 449 after 24 to 48 hr by broth microdilution method
Salmonella typhi = test: Antibacterial activity against Salmonella enterica subsp. enterica serovar Typhi MTCC 98 after 24 to 48 hr by broth microdilution method
Vibrio cholerae = test: Antibacterial activity against Vibrio cholerae MTCC 3906 after 24 to 48 hr by broth microdilution method
Streptococcus pneumoniae = test: Antibacterial activity against Streptococcus pneumoniae MTCC 1936 after 24 to 48 hr by broth microdilution method

Row | Compound | MIC (Candida albicans) | MIC (Aspergillus fumigatus) | MIC (Bacillus subtilis) | MIC (Escherichia coli) | MIC (Clostridium tetani) | MIC (Salmonella typhi) | MIC (Vibrio cholerae) | MIC (Streptococcus pneumoniae)
1 | COC1=CC(=O)C[C@@H](C)[C@]12Oc1c(Cl)c(OC)cc(OC)c1C2=O [GRISEOFULVIN] | 500 µg/mL (≈ 1420 µM) | 100 µg/mL (≈ 283 µM) | – | – | – | – | – | –
2 | N#CC1=C(N)OC2=C(C(=O)CCC2)C1c1c(-c2ccc(Br)cc2)[nH]c2ccccc12 (stereo unspecified) | 500 µg/mL (≈ 1090 µM) | 500 µg/mL (≈ 1090 µM) | 200 µg/mL (≈ 434 µM) | 125 µg/mL (≈ 272 µM) | 200 µg/mL (≈ 434 µM) | 200 µg/mL (≈ 434 µM) | 200 µg/mL (≈ 434 µM) | 100 µg/mL (≈ 217 µM)
3 | Cc1ccc(-c2[nH]c3ccccc3c2C2C(C#N)=C(N)OC3=C2C(=O)CC(C)(C)C3)cc1 (stereo unspecified) | 500 µg/mL (≈ 1180 µM) | 1000 µg/mL (≈ 2360 µM) | 250 µg/mL (≈ 590 µM) | 500 µg/mL (≈ 1180 µM) | 250 µg/mL (≈ 590 µM) | 250 µg/mL (≈ 590 µM) | 500 µg/mL (≈ 1180 µM) | 200 µg/mL (≈ 472 µM)
4 | N#CC1=C(N)OC2=C(C(=O)CCC2)C1c1c(-c2ccccc2)[nH]c2ccccc12 (stereo unspecified) | 1000 µg/mL (≈ 2620 µM) | 500 µg/mL (≈ 1310 µM) | 500 µg/mL (≈ 1310 µM) | 500 µg/mL (≈ 1310 µM) | 500 µg/mL (≈ 1310 µM) | 500 µg/mL (≈ 1310 µM) | 250 µg/mL (≈ 655 µM) | 500 µg/mL (≈ 1310 µM)
5 | COc1ccc(-c2[nH]c3ccccc3c2C2C(C#N)=C(N)OC3=C2C(=O)CC(C)(C)C3)cc1 (stereo unspecified) | 500 µg/mL (≈ 1140 µM) | > 1000 µg/mL | 500 µg/mL (≈ 1140 µM) | 500 µg/mL (≈ 1140 µM) | 500 µg/mL (≈ 1140 µM) | 500 µg/mL (≈ 1140 µM) | 500 µg/mL (≈ 1140 µM) | 500 µg/mL (≈ 1140 µM)
6 | Cc1ccc(-c2[nH]c3ccccc3c2C2C(C#N)=C(N)OC3=C2C(=O)CCC3)cc1 (stereo unspecified) | 1000 µg/mL (≈ 2530 µM) | 1000 µg/mL (≈ 2530 µM) | 500 µg/mL (≈ 1260 µM) | 200 µg/mL (≈ 506 µM) | 500 µg/mL (≈ 1260 µM) | 250 µg/mL (≈ 632 µM) | 250 µg/mL (≈ 632 µM) | 500 µg/mL (≈ 1260 µM)
7 | O=C(O)c1cn(C2CC2)c2cc(N3CCNCC3)c(F)cc2c1=O [CIPROFLOXACIN] | – | – | – | 25 µg/mL (≈ 75.4 µM) | – | 25 µg/mL (≈ 75.4 µM) | 25 µg/mL (≈ 75.4 µM) | 50 µg/mL (≈ 151 µM)
8 | N#CC1=C(N)OC2=C(C(=O)CCC2)C1c1c(-c2ccc(F)cc2)[nH]c2ccccc12 (stereo unspecified) | 500 µg/mL (≈ 1250 µM) | 1000 µg/mL (≈ 2500 µM) | 200 µg/mL (≈ 501 µM) | 500 µg/mL (≈ 1250 µM) | 500 µg/mL (≈ 1250 µM) | 500 µg/mL (≈ 1250 µM) | 250 µg/mL (≈ 626 µM) | 200 µg/mL (≈ 501 µM)
9 | N#CC1=C(N)OC2=C(C(=O)CCC2)C1c1c(-c2ccc([N+](=O)[O-])cc2)[nH]c2ccccc12 (stereo unspecified) | 200 µg/mL (≈ 469 µM) | 500 µg/mL (≈ 1170 µM) | 250 µg/mL (≈ 586 µM) | 500 µg/mL (≈ 1170 µM) | 250 µg/mL (≈ 586 µM) | 500 µg/mL (≈ 1170 µM) | 500 µg/mL (≈ 1170 µM) | 250 µg/mL (≈ 586 µM)
10 | CCn1cc(C(=O)O)c(=O)c2cc(F)c(N3CCNCC3)cc21 [NORFLOXACIN] | – | – | 100 µg/mL (≈ 313 µM) | 10 µg/mL (≈ 31.3 µM) | 50 µg/mL (≈ 157 µM) | 10 µg/mL (≈ 31.3 µM) | 10 µg/mL (≈ 31.3 µM) | 10 µg/mL (≈ 31.3 µM)
11 | CC1(C)CC(=O)C2=C(C1)OC(N)=C(C#N)C2c1c(-c2ccc(Cl)cc2)[nH]c2ccccc12 (stereo unspecified) | > 1000 µg/mL | > 1000 µg/mL | 250 µg/mL (≈ 563 µM) | 62.5 µg/mL (≈ 141 µM) | 250 µg/mL (≈ 563 µM) | 200 µg/mL (≈ 451 µM) | 100 µg/mL (≈ 225 µM) | 250 µg/mL (≈ 563 µM)
